Reference: PMC12444508, “Mechanistic Insights into the Anticancer Action of Novel 2‑Hydroxy-1,4-naphthoquinone Thiol Derivatives” (ACS Omega, 2025)

Legend:
[1] = Hemolysis assay; type: cell-based, human; conditions: human, human erythrocytes, Triton X-100 positive control, read-out: % Hemolysis (Mean ± SD)
Procedure: To determine the surfactant power of the substances present in biological membranes, a hemolysis test was carried out with human blood approved by the Research Ethics Committee of the Universidade Federal Fluminense (CAAE: 43134721.4.0000.5626). Erythrocytes were collected for centrifugation at 1500 rpm for 15 min, washed with PBS (phosphate-buffered saline) supplemented with 10 mM glucose, and counted in an automatic cell counter (Thermo Fisher, Waltham, MA, USA). […] In total, 10 μL of PBS was used as a negative control, and 10 μL of PBS with 0.1% Triton x 100 was used as a positive control. Data reading was performed with EPOCH (BioTek Instruments, Winooski, VT, USA) at an absorbance of 540 nm, and statistical data were generated using […] Prism 8.4.3.0 program (Intuitive Software for Science, San Diego, CA, USA).

[2] = tested on: C57BL/6 mice; assay: In vivo acute toxicity study; conditions: single intraperitoneal dose 100, 200 and 400 mg/kg, 14 days
Procedure: . All experiments were carried out in accordance with Brazilian guidelines and regulations. Dosing and analysis were performed in accordance with 423 OECD guidelines and reviewed by. Each group of animals had n = 3 and received only one intraperitoneal injection (Day 0) of compounds 7a and 7e dissolved in […] of PBS and 3% DMSO. Animals in the control group received only 3% DMSO in PBS. The first dose of the compound was 100 mg/kg. Subsequent dose levels (200 mg/kg and 400 mg/kg) were determined based on the result obtained from the previous dose. Animals were examined daily, twice a day, for mortality and morbidity for 14 days, when all animals were anesthetized (ketamine 100 mg/kg and xylazine 10 mg/kg) followed by cervical dislocation. Macroscopic necropsy of the main organs was performed. The animals’ body weight and average food consumption were measured every 7 days. As an indicator of morbidity, the following signs were evaluated: tremors, seizure, salivation, diarrhea, and lethargy, along with the signs of pain, increased back arching, and mobility disability. The necropsy included examination of the external characteristics of the carcass; external orifices of the body; the abdominal, thoracic, and cranial cavities; and organs/tissues of the liver, thymus, right kidney, right testicle, heart, and lung.

[3] = tested on: SCC-9-LC3-GFP cells; assay: Autophagy assay (LC3-GFP puncta); type: cell-based, human; conditions: 1 × IC50, 48 h
Procedure: To determine whether compounds 7a and 7e induce autophagy, SCC-9 cells were stably transduced with the plasmid expressing LC3-GFP as described. […] As a positive control, we used compound 8 (Supplementary Figure S1), an already described naphthoquinone-triazole-coumarin hybrid, able to induce autophagy at its IC50 concentration, 30 μM. After 48 h, the cells were visualized using a Zeiss Axio Observer A1 Fluorescence Optical Microscope (Zeiss, Oberkochen, Baden-Württemberg, Germany) to observe the formation of typical autophagy spots and photographed using a high-resolution monochromatic microscopy camera (Axiocam 503 mono, resolution: 1936 × 1460 pixels, pixel size: 4.54 μm × 4.54 μm) to maximize sensitivity and image quality.

[4] = tested on: HepG2 (liver cancer); assay: MTT cytotoxicity/selectivity, HepG2; type: cell-based; conditions: vs normal oral fibroblasts
Procedure: (§1) Human SCC-4, SCC-9, and SCC-25 cells, derived from a human oral tongue SCC (squamous cell carcinoma), were obtained from ATCC (CRL-1624, CRL-1629, and CRL-1628, respectively) and maintained in 1:1 DMEM/F12 (Dulbecco’s modified Eagle’s medium and Ham’s F12 medium; Gibco (Thermo Fisher, Waltham, MA, USA)) supplemented with 10% (v/v) FBS (fetal bovine serum; Invitrogen, Thermo Fisher, Waltham, MA, USA) and 400 ng/mL hydrocortisone (Sigma-Aldrich Corporation, St. Louis, MO, USA). B16-F10 (melanoma; CRL-6475), HCT-116 (colorectal cancer; CCL-247), and HepG2 (liver cancer; HB-8065), in addition to primary normal human gingival fibroblasts obtained from ATCC (PCS-201-018), were maintained in DMEM supplemented with 10% (v/v) of FBS and were used in a maximum of six passages. Cells were grown in a humidified environment containing 5% CO2 at 37 °C. For all biological assays, compounds and shikonin were solubilized in 100% DMSO (all Sigma-Aldrich Corp.) to a final concentration of 10 mM and lapachol in ethanol. The carboplatin control was prepared in water (Fauldcarbo; Libbs Farmacêutica, São Paulo, SP, Brazil) and was used as a standard anticancer compound.
(§2) The viability of OSCC cell lines and primary human fibroblast cells was assessed using the MTT assay as in ref . Briefly, cells were grown in triplicate in 96-well plates (5 × 10^3 cells/well) until confluence. Then, the medium was removed, fresh medium was added, and the cells were returned to the incubator in the presence of different compounds. […] Then, the wells containing the cells were washed with PBS heated to 37 °C, the formazan crystals were dissolved in a solvent solution (DMSO/methanol 1:1 v/v), and the absorbance was read at 560 nm using an EPOCH microplate spectrophotometer (BioTek Instruments, Winooski, VT, USA) with the background absorbance at 670 nm subtracted. […]
(§3) Data are presented as means ± SD. […] The selectivity index was calculated as SI = IC50 of the compound in normal oral fibroblast cells/IC50 of the same compound for each oral cancer cell line (SCC-4, SCC-9, and SCC-25) and averaged when indicated.

[5] = tested on: active caspase 3/7 in SCC-9 cells; assay: Active caspase 3/7 staining; type: cell-based, human; conditions: 2 × IC50, 24 h
Procedure: The following reagents were used in this assay: CellEvent Caspase-3/7 Green Ready Probes Reagent kit (R37111, Thermo Fisher, Waltham, Massachusetts, USA). SCC-9 cells were plated in 24-well microplates in the amount of 5 × 10^4 cells per well as previously described in ref . […] The duration of the treatment time was 24 h. After this period, the cells were taken to the Zeiss Axio Observer A1 fluorescence optical microscope (Zeiss, Oberkochen, Baden-Württemberg, Germany) to obtain caspase labeling images from five different fields. Data quantification was performed using the ImageJ program, and the values of reactive cells for caspase were compared in relation to the total number of cells per field, and the result was given as a percentage.

[6] = tested on: B16-F10 (melanoma); assay: MTT cytotoxicity/selectivity, B16-F10; type: cell-based; conditions: vs normal oral fibroblasts
Procedure: as §1, §2, §3

[7] = tested on: HCT-116 (colorectal cancer); assay: MTT cytotoxicity/selectivity, HCT-116; type: cell-based; conditions: vs normal oral fibroblasts
Procedure: as §1, §2, §3

SMILES	hemolysis at 500 µM [1] [%]	abdominal cavity and macroscopic organs at necropsy [2]	body weight and food consumption vs control animals [2]	cells with LC3-positive puncta (autophagosome formation) [3] [%]	selective index (SI) HepG2 hepatocellular carcinoma [4]	cells with positive staining for active caspases 3 and 7 [5] [%]	selective index (SI) B16-F10 melanoma [6]	selective index (SI) HCT-116 colon cancer [7]
CC1(C)OC2=C(C(=O)c3ccccc3C2=O)C(Sc2ccccc2)C1Sc1ccccc1 (stereo not shown) [7a, 2,2-Dimethyl-3,4-bis(phenylthio)-3,4-dihydro-2H-benzo[g]chromene-5,10-dione]	< 2	no morphological changes or lesions	no significant difference	20.5	2.1	71	1.4	2.7
COc1ccc(SC2C3=C(OC(C)(C)C2Sc2ccc(OC)cc2)C(=O)c2ccccc2C3=O)cc1 (stereo not shown) [7e, 3,4-Bis((4-methoxyphenyl)thio)-2,2-dimethyl-3,4-dihydro-2H-benzo[g]chromene-5,10-dione]	< 2	no morphological changes or lesions	no significant difference	7.4	3.4	78.6	7.5	9.1
